target: T1, p53 Y220C (Homo sapiens, UniProt P04637, Y220C); experiment: In vitro DNA binding activity assay (HTRF / TR-FRET): stabilization of p53 Y220C and increase of its DNA binding activity; format: biochemical; conditions: recombinant His-tagged p53 Y220C DNA binding domain (aa 94-312), biotin-labeled consensus DNA, incubated at 27° C. or 29° C. for 60 min
T1 construct: The recombinant protein was a truncation mutant containing only amino acids 94-312 of p53; made in house; host or cells: E. coli
T1 sequence (P04637 94-312, change not shown): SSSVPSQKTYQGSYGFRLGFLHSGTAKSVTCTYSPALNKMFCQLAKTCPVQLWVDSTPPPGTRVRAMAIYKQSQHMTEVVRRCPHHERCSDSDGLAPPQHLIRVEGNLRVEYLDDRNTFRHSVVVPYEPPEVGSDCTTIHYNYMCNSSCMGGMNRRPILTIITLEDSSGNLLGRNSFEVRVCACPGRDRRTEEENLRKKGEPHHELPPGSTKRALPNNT
Outline: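 Compound effect on DNA binding of recombinant His-p53 Y220C (E. coli) to biotin-labeled consensus DNA, expressed as SC150, the concentration giving 50% increase versus untreated. Serial 3-fold DMSO dilutions of 4.5 mM stocks; room-temperature steps of 15 then 20 min.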

Question: How did the “SC150 (concentration of the compound required to increase the DNA binding activity by 50%)” value turn out when `COc1cc(C(N)=O)ccc1NCC#Cc1cc2c(N[C@H]3CC[C@@H](N4CCOCC4)CC3)cccc2n1CC(F)(F)F` [Compound 171A, 3-methoxy-4-{[3-(4-{[(1S,4S)-4-(morpholin-4-yl)cyclohexyl]amino}-1-(2,2,2-trifluoroethyl)-1H-indol-2-yl)prop-2-yn-1-yl]amino}benzamide] was run?
Answer: + (+ = 0 μM ≤ SC150 < 0.05 μM)

Question: With `COc1cc(S(C)(=O)=O)ccc1NCC#Cc1cc2c(N[C@@H]3CCN(C(C)C)C[C@@H]3F)cccc2n1CC(F)(F)F` [Compound 802A] as the compound, how does the “SC150 (concentration of the compound required to increase the DNA binding activity by 50%)” value read?
Answer: + (+ = 0 μM ≤ SC150 < 0.05 μM)

Question: `CNC(=O)c1ccc(NCC#Cc2cc3c(N[C@H]4CC[C@H](N5CC6(COC6)C5)CC4)cccc3n2CC(F)(F)F)c(OC)c1` [Compound 229A, 3-methoxy-N-methyl-4-{[3-(4-{[(1R,4R)-4-{2-oxa-6-azaspiro[3.3]heptan-6-yl}cyclohexyl]amino}-1-(2,2,2-trifluoroethyl)-1H-indol-2-yl)prop-2-yn-1-yl]amino}benzamide] was tested. Which “SC150 (concentration of the compound required to increase the DNA binding activity by 50%)” value did it give?
Answer: + (+ = 0 μM ≤ SC150 < 0.05 μM)

Question: Which “SC150 (concentration of the compound required to increase the DNA binding activity by 50%)” value does the source give for `COc1cc(S(=O)(=O)N(C)CCO)ccc1NCC#Cc1cc2c(NC3CCN(CC(O)CO)CC3)cccc2n1CC(F)(F)F` (centres unmarked) [Compound 553A, 4-{[3-(4-{[1-(2,3-dihydroxypropyl)piperidin-4-yl]amino}-1-(2,2,2-trifluoroethyl)-1H-indol-2-yl)prop-2-yn-1-yl]amino}-N-(2-hydroxyethyl)-3-methoxy-N-methylbenzene-1-sulfonamide] here?
Answer: + (+ = 0 μM ≤ SC150 < 0.05 μM)

Question: Which “SC150 (concentration of the compound required to increase the DNA binding activity by 50%)” value does the source give for `COCC(O)CN1CCC(Nc2cccc3c2cc(C#CCNc2ccc(C(=O)O)cc2OC)n3CC(F)(F)F)CC1` (centres unmarked) [Compound 705A, 4-{[3-(4-{[1-(2-hydroxy-3-methoxypropyl)piperidin-4-yl]amino}-1-(2,2,2-trifluoroethyl)-1H-indol-2-yl)prop-2-yn-1-yl]amino}-3-methoxybenzoic acid] here?
Answer: + (+ = 0 μM ≤ SC150 < 0.05 μM)

Question: With `COCC(O)CN1CCC(Nc2cccc3c2cc(C#CCNc2ccc(S(=O)(=O)C(C)C)cc2OC)n3CC(F)(F)F)CC1` (centres unmarked) [Compound 694A, 1-methoxy-3-(4-{[2-(3-{[2-methoxy-4-(propane-2-sulfonyl)phenyl]amino}prop-1-yn-1-yl)-1-(2,2,2-trifluoroethyl)-1H-indol-4-yl]amino}piperidin-1-yl)propan-2-ol] as the compound, how does the “SC150 (concentration of the compound required to increase the DNA binding activity by 50%)” value read?
Answer: + (+ = 0 μM ≤ SC150 < 0.05 μM)

Question: How did the “SC150 (concentration of the compound required to increase the DNA binding activity by 50%)” value turn out when `COCCN1CC[C@@H](Nc2cccc3c2cc(C#CCNc2ccc(C(=O)O)cc2OC)n3CC(F)(F)F)[C@@H](F)C1` [Compound 898A] was run?
Answer: + (+ = 0 μM ≤ SC150 < 0.05 μM)

Question: `COc1cc(C(=O)NC(CCO)CCO)ccc1NCC#Cc1cc2c(N[C@@H]3CCN(C)C[C@@H]3F)cccc2n1CC(F)(F)F` [Compound 965A, N-(1,5-dihydroxypentan-3-yl)-4-{[3-(4-{[(3S,4R)-3-fluoro-1-methylpiperidin-4-yl]amino}-1-(2,2,2-trifluoroethyl)-1H-indol-2-yl)prop-2-yn-1-yl]amino}-3-methoxybenzamide] was tested. Which “SC150 (concentration of the compound required to increase the DNA binding activity by 50%)” value did it give?
Answer: + (+ = 0 μM ≤ SC150 < 0.05 μM)

Question: With `COc1cc(S(C)(=O)=O)ccc1NCC#Cc1cc2c(N[C@@H]3CCCC[C@@H]3N)cccc2n1CC(F)(F)F` [Compound 28A, (1R,2S)-N^1-(2-{3-[(4-methanesulfonyl-2-methoxyphenyl)amino]prop-1-yn-1-yl}-1-(2,2,2-trifluoroethyl)-1H-indol-4-yl)cyclo-hexane-1,2-diamine] as the compound, how does the “SC150 (concentration of the compound required to increase the DNA binding activity by 50%)” value read?
Answer: ++ (++ = 0.05 μM ≤ SC150 < 0.1 μM)

Question: With `COc1cc(C(=O)O)ccc1NCC#Cc1cc2c(NC3CCN(C[C@@H](C)O)CC3F)cccc2n1CC(F)(F)F` (mixture of isomers) [Compound 911A, 4-{[3-(4-{[(3S,4R)-3-fluoro-1-(2-hydroxypropyl)piperidin-4-yl]amino}-1-(2,2,2-trifluoroethyl)-1H-indol-2-yl)prop-2-yn-1-yl]amino}-3-methoxybenzoic acid] as the compound, how does the “SC150 (concentration of the compound required to increase the DNA binding activity by 50%)” value read?
Answer: + (+ = 0 μM ≤ SC150 < 0.05 μM)

Question: How did the “SC150 (concentration of the compound required to increase the DNA binding activity by 50%)” value turn out when `CNS(=O)(=O)c1ccc(NCC#Cc2cc3c(N[C@H]4CC[C@H](N5CCC6(CC5)COC6)CC4)cccc3n2CC(F)(F)F)c(OC)c1` [Compound 395A, 3-methoxy-N-methyl-4-{[3-(4-{[(1R,4R)-4-{2-oxa-7-azaspiro[3.5]nonan-7-yl}cyclohexyl]amino}-1-(2,2,2-trifluoroethyl)-1H-indol-2-yl)prop-2-yn-1-yl]amino}benzene-1-sulfonamide] was run?
Answer: + (+ = 0 μM ≤ SC150 < 0.05 μM)

Question: With `CNC(=O)c1ccc(NCC#Cc2cc3c(NC4CCN(CC(O)COC)CC4)cccc3n2CC(F)(F)F)c(OCF)c1` (centres unmarked) [Compound 663A, 3-(fluoromethoxy)-4-{[3-(4-{[1-(2-hydroxy-3-methoxypropyl)piperidin-4-yl]amino}-1-(2,2,2-trifluoroethyl)-1H-indol-2-yl)prop-2-yn-1-yl]amino}-N-methylbenzamide] as the compound, how does the “SC150 (concentration of the compound required to increase the DNA binding activity by 50%)” value read?
Answer: + (+ = 0 μM ≤ SC150 < 0.05 μM)

Question: `CN1CC[C@@H](Nc2cccc3c2cc(C#CCNc2ccc(S(C)(=O)=O)cc2O)n3CC(F)(F)F)[C@@H](F)C1` [Compound 834A, 2-{[3-(4-{[(3S,4R)-3-fluoro-1-methylpiperidin-4-yl]amino}-1-(2,2,2-trifluoroethyl)-1H-indol-2-yl)prop-2-yn-1-yl]amino}-5-methanesulfonylphenol] was tested. Which “SC150 (concentration of the compound required to increase the DNA binding activity by 50%)” value did it give?
Answer: + (+ = 0 μM ≤ SC150 < 0.05 μM)

Question: With `COc1cc(S(N)(=O)=O)ccc1NCC#Cc1cc2c(N[C@H]3CC[C@H](N4CCC5(CC4)COC5)CC3)cccc2n1CC(F)(F)F` [Compound 377A, 3-methoxy-4-{[3-(4-{[(1R,4R)-4-{2-oxa-7-azaspiro[3.5]nonan-7-yl}cyclohexyl]amino}-1-(2,2,2-trifluoroethyl)-1H-indol-2-yl)prop-2-yn-1-yl]amino}benzene-1-sulfonamide] as the compound, how does the “SC150 (concentration of the compound required to increase the DNA binding activity by 50%)” value read?
Answer: + (+ = 0 μM ≤ SC150 < 0.05 μM)

Question: Which “SC150 (concentration of the compound required to increase the DNA binding activity by 50%)” value does the source give for `COc1cc(S(N)(=O)=O)ccc1NCC#Cc1cc2c(N[C@H]3CC[C@H](N4CC5(CCC5)C4)CC3)cccc2n1CC(F)(F)F` [Compound 198A, 3-methoxy-4-{[3-(4-{[(1R,4R)-4-{2-azaspiro[3.3]heptan-2-yl}cyclohexyl]amino}-1-(2,2,2-trifluoroethyl)-1H-indol-2-yl)prop-2-yn-1-yl]amino}benzene-1-sulfonamide] here?
Answer: + (+ = 0 μM ≤ SC150 < 0.05 μM)

Question: `COCCN1CC[C@H](Nc2cccc3c2cc(C#CCNc2ccc(C(=O)O)cc2OC)n3CC(F)(F)F)[C@H](F)C1` [Compound 904A] was tested. Which “SC150 (concentration of the compound required to increase the DNA binding activity by 50%)” value did it give?
Answer: + (+ = 0 μM ≤ SC150 < 0.05 μM)

Question: How did the “SC150 (concentration of the compound required to increase the DNA binding activity by 50%)” value turn out when `COc1cc(S(=O)(=O)Nc2ccon2)ccc1NCC#Cc1cc2c(NC3CCOCC3)cccc2n1CC(F)(F)F` [Compound 992A, 3-methoxy-4-[(3-{4-[(oxan-4-yl)amino]-1-(2,2,2-trifluoroethyl)-1H-indol-2-yl}prop-2-yn-1-yl)amino]-N-(1,2-oxazol-3-yl)benzene-1-sulfonamide] was run?
Answer: + (+ = 0 μM ≤ SC150 < 0.05 μM)

From patent publication US12428406B2 (PMV Pharmaceuticals, Inc., priority 2019, dated 2025)
